Experimental data reported in ChEMBL document CHEMBL1955732, “Synthesis and biological evaluation of 21-arylidenepregnenolone derivatives as neuroprotective agents” (Bioorg Med Chem Lett, 2012).
Calls of active or inactive are those of the source. The rule behind the calls is not given here.

Columns and labels:
PC-12 [1] = assay: Neuroprotective activity against Abeta25-35-induced […] cells assessed as cell viability at 10 uM preincubated for 2 hrs prior Abeta25-35 challenge measured after 24 hrs by MTT assay; type: functional; conditions: Rattus norvegicus, read-out: Activity
PC-12 [2] = assay: Neuroprotective activity against H2O2-induced […] cells assessed as cell viability at 10 uM preincubated for 2 hrs prior H2O2 challenge measured after 24 hrs by MTT assay; type: functional; conditions: Rattus norvegicus, read-out: Activity
PC-12 [3] = assay: Neuroprotective activity against Abeta25-35-induced […] cells assessed as cell viability at 1 uM preincubated for 2 hrs prior Abeta25-35 challenge measured after 24 hrs by MTT assay; type: functional; conditions: Rattus norvegicus; for viability at 1 µM: read-out: Activity
SH-SY5Y [4] = assay: Neuroprotective activity against oxygen-glucose deprivation-induced human SH-SY5Y cells assessed as cell viability at 5 uM preincubated for 2 hrs prior oxygen-glucose deprivation challenge for 1 hr measured after 24 hrs incubation under normal condition by MTT assay; type: functional; conditions: read-out: Activity
PC-12 [5] = assay: Cytotoxicity against […] cells at 10 uM after 24 hrs by MTT assay; type: cell-based; conditions: rat, pc-12, 24 h
[6] = Solubility of the compound at 1 uM; type: physicochemical
[7] = Solubility of the compound at 10 uM; type: physicochemical
PC-12 [8] = assay: Cytotoxicity against […] cells at 1 uM after 24 hrs by MTT assay; type: cell-based; conditions: rat, pc-12, 24 h
SH-SY5Y [9] = assay: Neuroprotective activity against oxygen-glucose deprivation-induced human SH-SY5Y cells assessed as cell viability at 10 uM preincubated for 2 hrs prior oxygen-glucose deprivation challenge for 1 hr measured after 24 hrs incubation under normal condition by MTT assay; type: functional; conditions: read-out: Activity

SMILES | viability at 10 µM (PC-12 [1]) | viability at 1 µM (PC-12 [3]) | Activity (PC-12 [3]) | Activity (PC-12 [5]) | solubility [6] | solubility [7] | Activity (PC-12 [8]) | other results
COc1ccccc1/C=C/C(=O)[C@H]1CC[C@H]2[C@@H]3CC=C4C[C@@H](O)CC[C@]4(C)[C@H]3CC[C@]12C | 74.5% | 64.1% |  |  |  |  |  | viability at 10 µM (PC-12 [2]): 83.7%
CCOc1ccccc1/C=C/C(=O)[C@H]1CC[C@H]2[C@@H]3C[C@@H]4O[C@@]45C[C@@H](O)CC[C@]5(C)[C@H]3CC[C@]12C | 49.5% |  | inactive | Toxic |  |  |  | viability at 5 µM (SH-SY5Y [4]): 98.8%
C[C@]12CC[C@H]3[C@@H](CC=C4C[C@@H](O)CC[C@@]43C)[C@@H]1CC[C@@H]2C(=O)/C=C/c1ccc(Cl)cc1 |  |  |  |  | Insoluble | Insoluble |  | 
C[C@]12CC[C@H]3[C@@H](CC=C4C[C@@H](O)CC[C@@]43C)[C@@H]1CC[C@@H]2C(=O)/C=C/c1ccco1 | 36.9% | 52.5% |  | Toxic |  |  | Toxic | 
C[C@]12CC[C@H]3[C@@H](C[C@@H]4O[C@@]45C[C@@H](O)CC[C@]35C)[C@@H]1CC[C@@H]2C(=O)/C=C/c1ccc(Br)cc1 | 32.5% | 50.1% |  | Toxic |  |  | Toxic | 
C[C@]12CC[C@H]3[C@@H](CC=C4C[C@@H](O)CC[C@@]43C)[C@@H]1CC[C@@H]2C(=O)/C=C/c1ccc(Br)cc1 |  |  |  |  | Insoluble | Insoluble |  | 
C[C@]12CC[C@H]3[C@@H](CC=C4C[C@@H](O)CC[C@@]43C)[C@@H]1CC[C@@H]2C(=O)/C=C/c1ccccc1F | 38.3% | 53.1% |  | Toxic |  |  | Toxic | 
COc1ccccc1/C=C/C(=O)[C@H]1CC[C@H]2[C@@H]3C[C@@H]4O[C@@]45C[C@@H](O)CC[C@]5(C)[C@H]3CC[C@]12C | 73.7% |  | inactive |  |  |  |  | viability at 10 µM (SH-SY5Y [9]): 98.7%
C[C@]12CC[C@H]3[C@@H](CC=C4C[C@@H](O)CC[C@@]43C)[C@@H]1CC[C@@H]2C(=O)/C=C/c1ccc(C#N)cc1 |  |  |  |  | Insoluble | Insoluble |  | 
Cc1ccccc1/C=C/C(=O)[C@H]1CC[C@H]2[C@@H]3CC=C4C[C@@H](O)CC[C@]4(C)[C@H]3CC[C@]12C | 50.4% |  | inactive | Toxic |  |  |  | viability at 5 µM (SH-SY5Y [4]): 84.8%
